Test results taken from the NIST ThermoML archive (doi:10.1016/j.jct.2017.07.026).
± gives the expanded uncertainty stated by the source. Values belong to the compound of their own block, whether it stands above or below them.

Experiments:
[1] = 298.15 K, Liquid
[2] = mn = molality of the nth substance listed, in mol/kg; details: 298.15 K, 100 kPa, Liquid, Vibrating tube method

mass density ([1]; 100 kPa, Vibrating tube method): 693.9 ± 1.4 kg/m3
SMILES: CCCCCC(C)C [2-methylheptane]

mass density ([2]; m1 = 0.1174): 784.76 ± 0.33 kg/m3
mass density ([2]; m1 = 0.1406): 784.42 ± 0.33 kg/m3
mass density ([2]; m1 = 0.2155): 783.3 ± 0.33 kg/m3
mass density ([2]; m1 = 0.3711): 781.09 ± 0.33 kg/m3
mass density ([2]; m1 = 0.4177): 780.47 ± 0.33 kg/m3
mass density ([2]; m1 = 0.4497): 780.04 ± 0.33 kg/m3
mass density ([2]; m1 = 0.5259): 779.01 ± 0.33 kg/m3
mass density ([2]; m1 = 0.5815): 778.29 ± 0.34 kg/m3
mass density ([2]; m1 = 0.639): 777.54 ± 0.34 kg/m3
mass density ([2]; m1 = 0.7339): 776.35 ± 0.34 kg/m3
SMILES: CCCCCC(C)C [2-methylheptane] + CO

mass density ([1]; 100 kPa, Vibrating tube method): 648.48 ± 0.67 kg/m3
SMILES: CCCC(C)C [2-methylpentane]

mass density ([2]; m1 = 0.02577): 786.15 ± 0.33 kg/m3
mass density ([2]; m1 = 0.09112): 785.08 ± 0.33 kg/m3
mass density ([2]; m1 = 0.1002): 784.95 ± 0.33 kg/m3
mass density ([2]; m1 = 0.1267): 784.51 ± 0.33 kg/m3
mass density ([2]; m1 = 0.1833): 783.59 ± 0.33 kg/m3
mass density ([2]; m1 = 0.2247): 782.95 ± 0.33 kg/m3
mass density ([2]; m1 = 0.2392): 782.73 ± 0.33 kg/m3
mass density ([2]; m1 = 0.3355): 781.24 ± 0.33 kg/m3
mass density ([2]; m1 = 0.3506): 781.02 ± 0.33 kg/m3
mass density ([2]; m1 = 0.3833): 780.53 ± 0.33 kg/m3
mass density ([2]; m1 = 0.4498): 779.5 ± 0.33 kg/m3
mass density ([2]; m1 = 0.4937): 778.85 ± 0.34 kg/m3
mass density ([2]; m1 = 0.5032): 778.68 ± 0.34 kg/m3
mass density ([2]; m1 = 0.5629): 777.84 ± 0.34 kg/m3
mass density ([2]; m1 = 0.6343): 776.78 ± 0.34 kg/m3
SMILES: CCCC(C)C [2-methylpentane] + CO

mass density ([1]; 100 kPa, Vibrating tube method): 659.76 ± 0.68 kg/m3
SMILES: CCC(C)CC [3-methylpentane]

mass density ([2]; m1 = 0.02902): 786.12 ± 0.33 kg/m3
mass density ([2]; m1 = 0.04025): 785.97 ± 0.33 kg/m3
mass density ([2]; m1 = 0.06079): 785.65 ± 0.33 kg/m3
mass density ([2]; m1 = 0.07925): 785.37 ± 0.33 kg/m3
mass density ([2]; m1 = 0.1106): 784.93 ± 0.33 kg/m3
mass density ([2]; m1 = 0.2045): 783.51 ± 0.33 kg/m3
mass density ([2]; m1 = 0.307): 782.05 ± 0.33 kg/m3
mass density ([2]; m1 = 0.3825): 781.03 ± 0.33 kg/m3
mass density ([2]; m1 = 0.3944): 780.81 ± 0.34 kg/m3
mass density ([2]; m1 = 0.4638): 779.87 ± 0.33 kg/m3
mass density ([2]; m1 = 0.5751): 778.42 ± 0.33 kg/m3
mass density ([2]; m1 = 0.6145): 777.81 ± 0.34 kg/m3
mass density ([2]; m1 = 0.7207): 776.46 ± 0.34 kg/m3
SMILES: CCC(C)CC [3-methylpentane] + CO

mass density ([1]; 101.33 kPa, Pycnometric method): 679.455 ± 0.22 kg/m3
SMILES: CCCCCCC [heptane]

mass density ([1]; 100 kPa, Vibrating tube method): 786.57 ± 0.33 kg/m3
SMILES: CO [methanol]

mass density ([2]; m2 = 0): 786.57 ± 0.33 kg/m3
SMILES: CO [methanol] + CCC(C)CC

mass density ([2]; m2 = 0): 786.57 ± 0.33 kg/m3
SMILES: CO [methanol] + CCCC(C)C

mass density ([2]; m2 = 0): 786.57 ± 0.33 kg/m3
SMILES: CO [methanol] + CCCCCC(C)C

SMILES: Cc1ccccc1 [toluene]
mass density ([1]; 101.33 kPa, Pycnometric method): 862.214 ± 0.26 kg/m3
